These results are taken from patent publication US20220267753A1, “RATIONAL THERAPEUTIC TARGETING OF ONCOGENIC IMMUNE SIGNALING STATES IN MYELOID MALIGNANCIES VIA THE UBIQUITIN CONJUGATING ENZYME UBE2N” (CHILDREN'S HOSPITAL MEDICAL CENTER, priority 2019, published 2022).

Read-outs that look alike come from different tables or passages of the source.

The subject of one data set is AML cell lines. The experiment in a line: Cell proliferation MTS assay, panel of AML cell lines. It counts as cell-based. The settings on record: Homo sapiens. The procedure: AML cell lines (5×10^3 cells/well) were seeded in 96-well plates and grown for 24 to 96 h in serum (10%)-containing medium in the presence or absence of inhibitors at the indicated concentrations. Proliferation was analyzed by means of an MTS assay using the CellTiter 96 Aqueous One Solution Cell Proliferation Assay (Promega, Madison, Wis., USA), according to the manufacturer's instructions. Data are mean with standard deviation from three independent experiments in technical triplicates. For the screening of 160 compounds from the UC library, the cell metabolic activity was assessed at 24 hours of treatment of MOLM-13 cells. Top 15 candidates were re-screened at 2 μM, and the cell metabolic activity was determined at 24 hours of treatment. In certain experiments, cell viability was determined by staining the cells with trypan blue at a 1/2 dilution and counting total number of viable cells upon treatment with UC-764864 or DMSO control. The cells were counted daily for 4 days using an automated cell counter (Countess II FL from Life Technologies). […] UC-764864 was added at the indicated concentrations and cells were incubated with drug for 3 days, at which point cell viability was measured by MTS according to manufacturer's instructions.

The next data set addresses T1, UBE2N C87S mutant (Homo sapiens, UniProt P61088, C87S).
T1 construct: purchased Genescript
The experiment in a line: Linear mass spectrometry (MALDI-TOF) analysis of drug binding. The settings on record: MALDI-TOF-MS. As to the method: (§1) Recombinant UBE2N (2 .tg; Life sensors #UB218) in 3 .tl of buffer containing 20 mM Tris-HCl pH 7.4, 10 mM DTT, 10% glycerol, 150 mM NaCl and 0.02% DMSO as well as six samples of 1 .tg UBE2N mixed with 0.2 .tg of UC-764864 or UC-764865 were diluted to 50 ng/uL in 0.1% formic acid (FA) in preparation of MALDI-TOF analysis. Two .tl aliquots from the samples were used to make a 1:5 dilution with MALDI matrix (5 mg/mL sinapic acid in 60% ACN/0.1% formic acid) with 1 .tL spotted onto the target plate for analysis. For UBE2N C87S mutant, recombinant protein was purchased from Genescript. 2 micrograms of protein as well as 3 samples of UBE2N C87S were mixed with 0.4 micrograms of UC-764864 and UC-764865 in 10 microliters of buffer containing 20 mM Tris HCl pH 7.4, 1 mM DTT, 150 mM NaCl and ˜0.01% of DMSO in each sample. All mixtures were brought up to 40 ul by adding 30 ul of 0.1% formic acid (FA). 5 ul aliquots from the samples were used to make a 1:5 dilution with MALDI matrix as described above. All spectra were acquired in Linear Positive Ion Mode on an ABSciex 4800 MALDI-TOF/TOF instrument, with E. coli thioredoxin (11,674.5; MH+ avg) and horse muscle apomyoglobin (15,952.6; MH+ avg) as mass calibration standards. For DSF, all proteins (UBE2N wild type and UBE2N C87S) were used at a final concentration of 5 .tM. SYPRO Orange (Invitrogen 56651, Carlsbad, Calif.) was used at a final concentration of 10× for UBE2N wild type and UBE2N C87S. Experiments were carried out in 20 mM Tris-HCl pH 8, 150 mM NaCl, 1 mM TCEP, and 10% DMSO. UC-764865 was mixed with the proteins at increasing concentrations, each sample was divided into three 25 .tl replicates in 48-well optical plates (Thermo Fisher Scientific 4375816, Waltham, Mass.) and the plate was sealed with optical PCR plate sheet (Thermo Fisher Scientific 4375928). All experiments were performed on a StepOne Real-Time PCR System (Applied Biosystems 4376357, Foster City, Calif.). The temperature was raised in 1° C. increments from 25° C. to 95° C. and fluorescence was measured at 530 nm. Derivative Tm was determined using Protein Thermal Shift Software version 1.3 by Applied Biosystems and then were analyzed with Prism 6 (GraphPad Software Inc.).

A further data set addresses T2, UBE2N wild type (Homo sapiens, UniProt P61088).
T2 construct: purchased Life sensors UB218
T2 sequence (P61088 1-152): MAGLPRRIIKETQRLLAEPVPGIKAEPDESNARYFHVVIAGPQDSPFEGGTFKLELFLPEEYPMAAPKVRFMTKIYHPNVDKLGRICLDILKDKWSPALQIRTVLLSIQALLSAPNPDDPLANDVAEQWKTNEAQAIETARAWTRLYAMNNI
The description is as above. The settings on record: MALDI-TOF-MS, incubated with compound. As to the method:
as §1

Data set [1] is described as follows: In vivo preclinical pharmacokinetic analysis. Details: species or system C57BL/6 mice. Particulars: for drug-like / pharmacokinetic properties in words: mice; for AUC(0-inf) / AUC(0-t) / Cmax / Tmax / half-life: mouse, blood, ip, C57BL/6 mice, 20 mg/kg i.p., mean; for half-life: read-out: T½ (converted). As to the method: PK studies of UC-764864 and UC-764865 were performed in C57BL/6 mice (18-22 g). 10 mg/kg and 20 mg/kg UC-764864 or UC-764865 was administered through intraperitoneal (i.p.) injection. After dosing, blood samples were collected at 15 min, 30 min, 1 h, 2 h, 4 h, 8 h, 12 h, and 24 h. Samples from three animals were collected at each time point. Approximately 500 μL of blood was collected via orbital vein from each mouse, processed, and analyzed by LC-MS. Standard curves were prepared in blood covering the concentration range of 50-3,0000 ng/mL. Using the data from the standard curves, calibration curves were generated for PK tests. For in vivo toxicity studies, 25 mg/kg UC-764864, UC-764865, 10 mg/kg NSC697923 or vehicle control (methocel 0.5% tween-20 0.2%,0.1% DMSO in water) were administered in B6.SJL-Ptprca Pepcb/BoyJ mice (n=3/group) through i.p. injection. For 2 weeks the mice received 4 doses of each compound. Routine body weight and blood counts were performed. At the end of the study, tissues were harvested, placed in 10% buffered formalin, stained with hematoxylin and eosin (H&E) and examined by a pathologist.

The nature of data set [2]: Microsomal stability (mouse liver microsomes). It counts as in vitro ADME, C57/Bl6. The settings on record: for Microsomal Stability % Remaning at T60 / CLint scaled / half-life: C57/Bl6, concentration 1 (mM), matrix 0.5 mg/ml; for CLint scaled: C57/Bl6, mouse; for CLint scaled / half-life: liver microsomes; for half-life: mouse, read-out: Microsomal Stability T ½.

T1 sequence (P61088 whole entry C87S): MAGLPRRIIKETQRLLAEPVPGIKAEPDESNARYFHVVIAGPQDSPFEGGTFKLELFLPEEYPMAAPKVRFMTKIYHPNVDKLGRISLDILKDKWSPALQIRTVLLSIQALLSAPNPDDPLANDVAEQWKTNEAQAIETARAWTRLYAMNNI

Regarding `CCc1ccc(C(=O)C=CSc2nc3ccc(C)cc3[nH]2)cc1` [UC-764864, 1-(4-ethylphenyl)-3-[(6-methyl-1H-benzimidazol-2-yl)sulfanyl]prop-2-en-1-one], the IC50 in the data set with AML cell lines (HL-60, NOMO-1, Kasumi-1, MV4-11, MDSL, read-out: IC50, cell lines with intermediate sensitivity) lay within 4.3 to 6.7 µM. In the data set with AML cell lines (MOLM-14, MOLM-13, THP-1, SKM-1, read-out: IC50, highly sensitive cell lines), the IC50 is 0.02 to 2.5 µM. On UBE2N C87S mutant, the “binding to recombinant UBE2N(C87S) (mass shift)” value is reported as “does not bind”. For the same compound, the mass shift of wild-type UBE2N protein at UBE2N wild type is 160 Da. In data set [1], the “drug-like / pharmacokinetic properties in words” value is reported as “poor pharmacokinetic (PK) properties”, the AUC(0-inf) was 461 ng·h/mL, the AUC(0-t) was 436 ng·h/mL and the Cmax came to 446 ng/mL. For the same compound, in data set [1], the time of peak concentration (Tmax) was found to be 15 min and the half-life was 124 min. Moreover, in data set [2], the “metabolism in mouse liver microsomes” value is recorded as “readily metabolized”, the “Microsomal Stability % Remaning at T60” value is recorded as 0.02%, the CLint scaled worked out at 1090 mL/min/kg and the half-life turned out to be 4.99 min.
Turning to `COc1ccc(C(=O)C=CSc2nc3ccc(C)cc3[nH]2)cc1` [UC-764865, 1-(4-methoxyphenyl)-3-[(6-methyl-1H-benzimidazol-2-yl)sulfanyl]prop-2-en-1-one], the “binding to recombinant UBE2N(C87S) (mass shift)” value on UBE2N C87S mutant was “does not bind”. For the same compound, the mass shift of wild-type UBE2N protein on UBE2N wild type turned out to be 160 Da. In data set [1], the “drug-like / pharmacokinetic properties in words” value was “modestly improved solubility, stability, and PK properties”; the AUC(0-inf) worked out at 413 ng·h/mL; the AUC(0-t) was found to be 346 ± 46.3 ng·h/mL; the Cmax came out at 216 ng/mL. For the same compound, in data set [1], the time to peak (Tmax) came to 19.8 min and the half-life was 528 min. Further, in data set [2], the “Microsomal Stability % Remaning at T60” value is recorded as 0.2%, the CLint scaled is 1100 mL/min/kg and the half-life stood at 4.97 min.
